*1 amine or outer side, *2 acyl side, *3 side chain or, on linkers, in order; H or OH if unused. Where a SMILES comes first, the peptide text is derived from it. [ ]: non-standard residue; d: D form. The star is where a group is joined. X1 = O=C([C@H](CCc1cn(C2CCC(OC3O[C@H](CO[C@H]4O[C@H](CO[C@H]5O[C@H](CO)[C@@H](O)[C@H](O)[C@@H]5O[C@H]5O[C@H](CO)[C@@H](O)[C@H](O)[C@@H]5O)[C@@H](O)[C@H](O[C@H]5O[C@H](CO)[C@@H](O)[C@H](O)[C@@H]5O[C@H]5O[C@H](CO)[C@@H](O)[C@H](O)[C@@H]5O)[C@@H]4O)[C@@H](O)[C@H](O[C@H]4O[C@H](CO)[C@@H](O)[C@H](O)[C@@H]4O[C@H]4O[C@H](CO)[C@@H](O)[C@H](O)[C@@H]4O[C@H]4O[C@H](CO)[C@@H](O)[C@H](O)[C@@H]4O)[C@@H]3O)CC2)nn1)N[*:1])[*:2]; For = O=C*
Tested on: 2G12
Assay: Binding curve and KD determination of 2G12-glycopeptide interaction (radiolabeled glycopeptide, protein G magnetic bead capture, scintillation counting)
Outline: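 Radiolabeled glycopeptide (<4 pmol) from PURE-system translation with click glycosylation was incubated with 100 nM 2G12 at room temperature. Complexes were captured on protein G beads and eluted at 70° C. Bound and unbound fractions were counted by scintillation, run at least in triplicate, and KD derived from binding curves.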

[1] = Table 4, maximal fraction bound from curve fit, error = standard error of fit
[2] = Table 6 mutational analysis, radioactive bead binding assay
[3] = Table 6 mutational analysis, radioactive bead binding assay, ribosomally translated

Row | Compound | Fmax [%] [1] [%] | Kd (Table 4, ribosomally translated radiolabeled glycopeptide with His6/FLAG tag, room temperature, fit Fbound=(Fmax[2G12])/(KD+[2G12]), error = standard error of fit) [nM] | Fmax [%] [2] [%] | Kd [3] [nM] | binding to 2G12 after truncation (in words) (truncated clones, Table 6)
1 | CC[C@H](C)[C@H](NC(=O)[C@@H](NC(=O)[C@@H](NC(=O)[C@H](Cc1c[nH]cn1)NC(=O)[C@H](CC(N)=O)NC(=O)[C@H](CC(=O)O)NC(=O)[C@H](CCc1cn(C2CCC(OC3O[C@H](CO[C@H]4O[C@H](CO[C@H]5O[C@H](CO)[C@@H](O)[C@H](O)[C@@H]5O[C@H]5O[C@H](CO)[C@@H](O)[C@H](O)[C@@H]5O)[C@@H](O)[C@H](O[C@H]5O[C@H](CO)[C@@H](O)[C@H](O)[C@@H]5O[C@H]5O[C@H](CO)[C@@H](O)[C@H](O)[C@@H]5O)[C@@H]4O)[C@@H](O)[C@H](O[C@H]4O[C@H](CO)[C@@H](O)[C@H](O)[C@@H]4O[C@H]4O[C@H](CO)[C@@H](O)[C@H](O)[C@@H]4O[C@H]4O[C@H](CO)[C@@H](O)[C@H](O)[C@@H]4O)[C@@H]3O)CC2)nn1)NC(=O)[C@@H](NC(=O)[C@H](CCCCN)NC(=O)[C@H](CCC(=O)O)NC(=O)[C@H](CCCNC(=N)N)NC(=O)[C@H](CCCCN)NC(=O)[C@H](CS)NC(=O)[C@H](CC(N)=O)NC(=O)[C@@H](NC(=O)[C@H](CCCCN)NC(=O)[C@@H](NC(=O)[C@H](C)NC(=O)[C@H](CCc1cn(C2CCC(OC3O[C@H](CO[C@H]4O[C@H](CO[C@H]5O[C@H](CO)[C@@H](O)[C@H](O)[C@@H]5O[C@H]5O[C@H](CO)[C@@H](O)[C@H](O)[C@@H]5O)[C@@H](O)[C@H](O[C@H]5O[C@H](CO)[C@@H](O)[C@H](O)[C@@H]5O[C@H]5O[C@H](CO)[C@@H](O)[C@H](O)[C@@H]5O)[C@@H]4O)[C@@H](O)[C@H](O[C@H]4O[C@H](CO)[C@@H](O)[C@H](O)[C@@H]4O[C@H]4O[C@H](CO)[C@@H](O)[C@H](O)[C@@H]4O[C@H]4O[C@H](CO)[C@@H](O)[C@H](O)[C@@H]4O)[C@@H]3O)CC2)nn1)NC=O)[C@@H](C)O)[C@@H](C)O)[C@@H](C)O)C(C)C)[C@@H](C)O)C(=O)N[C@@H](CCc1cn(C2CCC(OC3O[C@H](CO[C@H]4O[C@H](CO[C@H]5O[C@H](CO)[C@@H](O)[C@H](O)[C@@H]5O[C@H]5O[C@H](CO)[C@@H](O)[C@H](O)[C@@H]5O)[C@@H](O)[C@H](O[C@H]5O[C@H](CO)[C@@H](O)[C@H](O)[C@@H]5O[C@H]5O[C@H](CO)[C@@H](O)[C@H](O)[C@@H]5O)[C@@H]4O)[C@@H](O)[C@H](O[C@H]4O[C@H](CO)[C@@H](O)[C@H](O)[C@@H]4O[C@H]4O[C@H](CO)[C@@H](O)[C@H](O)[C@@H]4O[C@H]4O[C@H](CO)[C@@H](O)[C@H](O)[C@@H]4O)[C@@H]3O)CC2)nn1)C(=O)N[C@@H](CCCNC(=N)N)C(=O)N[C@@H](CO)C(=O)N[C@H](C(=O)N1CCC[C@H]1C(=O)N[C@@H](Cc1c[nH]c2ccccc12)C(=O)N[C@@H](Cc1ccc(O)cc1)C(=O)N[C@H](C(=O)N[C@@H](Cc1ccc(O)cc1)C(=O)N[C@@H](CCCNC(=N)N)C(=O)N[C@@H](Cc1c[nH]c2ccccc12)C(=O)N[C@@H](CC(C)C)C(=O)N1CCC[C@H]1C(=O)N[C@@H](CC(N)=O)C(=O)NCC(=O)N[C@@H](CO)C(=O)NCC(=O)N[C@@H](CO)C(=O)N[C@@H](CC(C)C)C(=O)NCC(=O)N[C@@H](Cc1c[nH]cn1)C(=O)N[C@@H](Cc1c[nH]cn1)C(=O)N[C@@H](Cc1c[nH]cn1)C(=O)N[C@@H](Cc1c[nH]cn1)C(=O)N[C@@H](Cc1c[nH]cn1)C(=O)N[C@@H](Cc1c[nH]cn1)C(=O)N[C@@H](CCCNC(=N)N)C(=O)N[C@@H](CC(=O)O)C(=O)N[C@@H](Cc1ccc(O)cc1)C(=O)N[C@@H](CCCCN)C(=O)N[C@@H](CC(=O)O)C(=O)N[C@@H](CC(=O)O)C(=O)N[C@@H](CC(=O)O)C(=O)N[C@@H](CC(=O)O)C(=O)N[C@@H](CCCCN)C(=O)O)[C@@H](C)O)[C@@H](C)CC (some centres unmarked) [Clone 10V1, XATKTNCKREKTXDNHVTIXRSIPWYTYRWLPN] | 97 ± 2.1 | 1.9 ± 0.17 |  |  | 
2 | For-[X1]PNCITQQDVR[X1]TSIPYTYTWPGSGSLGHHHHHHRDYKDDDDK-OH [Clone 10F3-Δ11, XPNCITQQDVRXTSIPYTYTWP] |  |  | 32 | 25 | 
3 | XIRXRTPTSRLXSTXRGXTXNXTSXITPRNDXI [Clone 7V8] | 108 ± 12 |  |  |  | 
4 | CC[C@H](C)[C@H](NC(=O)[C@H](CO)NC(=O)[C@H](CCCNC(=N)N)NC(=O)[C@H](CCc1cn(C2CCC(OC3O[C@H](CO[C@H]4O[C@H](CO[C@H]5O[C@H](CO)[C@@H](O)[C@H](O)[C@@H]5O[C@H]5O[C@H](CO)[C@@H](O)[C@H](O)[C@@H]5O)[C@@H](O)[C@H](O[C@H]5O[C@H](CO)[C@@H](O)[C@H](O)[C@@H]5O[C@H]5O[C@H](CO)[C@@H](O)[C@H](O)[C@@H]5O)[C@@H]4O)[C@@H](O)[C@H](O[C@H]4O[C@H](CO)[C@@H](O)[C@H](O)[C@@H]4O[C@H]4O[C@H](CO)[C@@H](O)[C@H](O)[C@@H]4O[C@H]4O[C@H](CO)[C@@H](O)[C@H](O)[C@@H]4O)[C@@H]3O)CC2)nn1)NC=O)C(=O)N1CCC[C@H]1C(=O)N[C@@H](Cc1c[nH]c2ccccc12)C(=O)N[C@@H](Cc1ccc(O)cc1)C(=O)N[C@H](C(=O)N[C@@H](Cc1ccc(O)cc1)C(=O)N[C@@H](CCCNC(=N)N)C(=O)N[C@@H](Cc1c[nH]c2ccccc12)C(=O)N[C@@H](CC(C)C)C(=O)N1CCC[C@H]1C(=O)N[C@@H](CC(N)=O)C(=O)NCC(=O)N[C@@H](CO)C(=O)NCC(=O)N[C@@H](CO)C(=O)N[C@@H](CC(C)C)C(=O)NCC(=O)N[C@@H](Cc1c[nH]cn1)C(=O)N[C@@H](Cc1c[nH]cn1)C(=O)N[C@@H](Cc1c[nH]cn1)C(=O)N[C@@H](Cc1c[nH]cn1)C(=O)N[C@@H](Cc1c[nH]cn1)C(=O)N[C@@H](Cc1c[nH]cn1)C(=O)N[C@@H](CCCNC(=N)N)C(=O)N[C@@H](CC(=O)O)C(=O)N[C@@H](Cc1ccc(O)cc1)C(=O)N[C@@H](CCCCN)C(=O)N[C@@H](CC(=O)O)C(=O)N[C@@H](CC(=O)O)C(=O)N[C@@H](CC(=O)O)C(=O)N[C@@H](CC(=O)O)C(=O)N[C@@H](CCCCN)C(=O)O)[C@@H](C)O (some centres unmarked) [Clone 10V1-Δ19, XRSIPWYTYRWLPN] (For-[X1]RSIPWYTYRWLPNGSGSLGHHHHHHRDYKDDDDK-OH; C-terminus assumed) |  |  | 20 | ~7.5 | tight binding

Reference: US11345912B2, “Directed evolution of multivalent glycopeptides that tightly bind to target proteins” (Brandeis University, priority 2013, dated 2022)
